Measured values: the NIST ThermoML archive (doi:10.1016/j.jct.2015.08.014)

Test: xn = mol fraction of the nth substance listed
Conditions: 313.15 K, 100 kPa, Liquid, Alternating current cell with electrodes

CCCC[N+]1(C)CCCC1.N#CN=C=[N-] [1-butyl-1-methylpyrrolidinium dicyanamide] + O=C1CCCO1
Conditions | electrical conductivity [S/m]
Frequency=0.002 MHz, x1 = 1 | 2
Frequency=0.0025 MHz, x1 = 0.0463 | 1.79
Frequency=0.0025 MHz, x1 = 0.0987 | 2.72
Frequency=0.0025 MHz, x1 = 0.1449 | 3.13
Frequency=0.0025 MHz, x1 = 0.1859 | 3.36
Frequency=0.0025 MHz, x1 = 0.2493 | 3.36
Frequency=0.0025 MHz, x1 = 0.3029 | 3.315
Frequency=0.0025 MHz, x1 = 0.3845 | 3.16
Frequency=0.0025 MHz, x1 = 0.4985 | 2.87
Frequency=0.0025 MHz, x1 = 0.6954 | 2.425
Frequency=0.0025 MHz, x1 = 0.9013 | 2.09
Frequency=0.0025 MHz, x1 = 1 | 2
Frequency=0.003 MHz, x1 = 0.0463 | 1.79
Frequency=0.003 MHz, x1 = 0.0987 | 2.72
Frequency=0.003 MHz, x1 = 0.1449 | 3.13
Frequency=0.003 MHz, x1 = 0.1859 | 3.36
Frequency=0.003 MHz, x1 = 0.2493 | 3.36
Frequency=0.003 MHz, x1 = 0.3029 | 3.316
Frequency=0.003 MHz, x1 = 0.3845 | 3.16
Frequency=0.003 MHz, x1 = 0.4985 | 2.87
Frequency=0.003 MHz, x1 = 0.6954 | 2.425
Frequency=0.003 MHz, x1 = 0.9013 | 2.09
Frequency=0.003 MHz, x1 = 1 | 2
Frequency=0.00347222 MHz, x1 = 0.0463 | 1.79
Frequency=0.00347222 MHz, x1 = 0.0987 | 2.72
Frequency=0.00347222 MHz, x1 = 0.1449 | 3.13
Frequency=0.00347222 MHz, x1 = 0.1859 | 3.37
Frequency=0.00347222 MHz, x1 = 0.2493 | 3.36
Frequency=0.00347222 MHz, x1 = 0.3029 | 3.317
Frequency=0.00347222 MHz, x1 = 0.3845 | 3.16
Frequency=0.00347222 MHz, x1 = 0.4985 | 2.87
Frequency=0.00347222 MHz, x1 = 0.6954 | 2.425
Frequency=0.00347222 MHz, x1 = 0.9013 | 2.09
Frequency=0.00347222 MHz, x1 = 1 | 2
Frequency=0.004 MHz, x1 = 0.0463 | 1.79
Frequency=0.004 MHz, x1 = 0.0987 | 2.73
Frequency=0.004 MHz, x1 = 0.1449 | 3.13
Frequency=0.004 MHz, x1 = 0.1859 | 3.37
Frequency=0.004 MHz, x1 = 0.2493 | 3.36
Frequency=0.004 MHz, x1 = 0.3029 | 3.318
Frequency=0.004 MHz, x1 = 0.3845 | 3.16
Frequency=0.004 MHz, x1 = 0.4985 | 2.88
Frequency=0.004 MHz, x1 = 0.6954 | 2.426
Frequency=0.004 MHz, x1 = 0.9013 | 2.09
Frequency=0.004 MHz, x1 = 1 | 2
Frequency=0.00446429 MHz, x1 = 0.0463 | 1.79
Frequency=0.00446429 MHz, x1 = 0.0987 | 2.73
Frequency=0.00446429 MHz, x1 = 0.1449 | 3.13
Frequency=0.00446429 MHz, x1 = 0.1859 | 3.37
Frequency=0.00446429 MHz, x1 = 0.2493 | 3.36
Frequency=0.00446429 MHz, x1 = 0.3029 | 3.318
Frequency=0.00446429 MHz, x1 = 0.3845 | 3.16
Frequency=0.00446429 MHz, x1 = 0.4985 | 2.88
Frequency=0.00446429 MHz, x1 = 0.6954 | 2.426
Frequency=0.00446429 MHz, x1 = 0.9013 | 2.09
Frequency=0.00446429 MHz, x1 = 1 | 2
Frequency=0.005 MHz, x1 = 0.0463 | 1.79
Frequency=0.005 MHz, x1 = 0.0987 | 2.73
Frequency=0.005 MHz, x1 = 0.1449 | 3.13
Frequency=0.005 MHz, x1 = 0.1859 | 3.37
Frequency=0.005 MHz, x1 = 0.2493 | 3.36
Frequency=0.005 MHz, x1 = 0.3029 | 3.319
Frequency=0.005 MHz, x1 = 0.3845 | 3.16
Frequency=0.005 MHz, x1 = 0.4985 | 2.88
Frequency=0.005 MHz, x1 = 0.6954 | 2.426
Frequency=0.005 MHz, x1 = 0.9013 | 2.09
Frequency=0.005 MHz, x1 = 1 | 2
Frequency=0.005454 MHz, x1 = 0.0463 | 1.79
Frequency=0.005454 MHz, x1 = 0.0987 | 2.73
Frequency=0.005454 MHz, x1 = 0.1449 | 3.13
Frequency=0.005454 MHz, x1 = 0.1859 | 3.37
Frequency=0.005454 MHz, x1 = 0.2493 | 3.36
Frequency=0.005454 MHz, x1 = 0.3029 | 3.319
Frequency=0.005454 MHz, x1 = 0.3845 | 3.16
Frequency=0.005454 MHz, x1 = 0.4985 | 2.88
Frequency=0.005454 MHz, x1 = 0.6954 | 2.426
Frequency=0.005454 MHz, x1 = 0.9013 | 2.09
Frequency=0.005454 MHz, x1 = 1 | 2
Frequency=0.006 MHz, x1 = 0.0463 | 1.79
Frequency=0.006 MHz, x1 = 0.0987 | 2.73
Frequency=0.006 MHz, x1 = 0.1449 | 3.13
Frequency=0.006 MHz, x1 = 0.1859 | 3.37
Frequency=0.006 MHz, x1 = 0.2493 | 3.36
Frequency=0.006 MHz, x1 = 0.3029 | 3.32
Frequency=0.006 MHz, x1 = 0.3845 | 3.16
Frequency=0.006 MHz, x1 = 0.4985 | 2.88
Frequency=0.006 MHz, x1 = 0.6954 | 2.43
Frequency=0.006 MHz, x1 = 0.9013 | 2.09
Frequency=0.006 MHz, x1 = 1 | 2
Frequency=0.00652174 MHz, x1 = 0.0463 | 1.79
Frequency=0.00652174 MHz, x1 = 0.0987 | 2.73
Frequency=0.00652174 MHz, x1 = 0.1449 | 3.13
Frequency=0.00652174 MHz, x1 = 0.1859 | 3.37
Frequency=0.00652174 MHz, x1 = 0.2493 | 3.36
Frequency=0.00652174 MHz, x1 = 0.3029 | 3.32
Frequency=0.00652174 MHz, x1 = 0.3845 | 3.16
Frequency=0.00652174 MHz, x1 = 0.4985 | 2.88
Frequency=0.00652174 MHz, x1 = 0.6954 | 2.43
Frequency=0.00652174 MHz, x1 = 0.9013 | 2.09
Frequency=0.00652174 MHz, x1 = 1 | 2
Frequency=0.00694444 MHz, x1 = 0.0463 | 1.79
Frequency=0.00694444 MHz, x1 = 0.0987 | 2.73
Frequency=0.00694444 MHz, x1 = 0.1449 | 3.13
Frequency=0.00694444 MHz, x1 = 0.1859 | 3.37
Frequency=0.00694444 MHz, x1 = 0.2493 | 3.36
Frequency=0.00694444 MHz, x1 = 0.3029 | 3.32
Frequency=0.00694444 MHz, x1 = 0.3845 | 3.16
